Biological target: T1, N-terminal HiBiT tagged BCL6 (Homo sapiens, UniProt P41182)
T1 construct: expressed in transfected cells; host or cells: HT1080 (ATCC CCL-121), stably transduced with lentivirus pLV-UBC-N-HiBiT-BCL6-PGK-puro
Test: HiBiT based degradation assay
Type: cell-based
Settings: HT1080 cells expressing N-terminal HiBiT tagged BCL6, 5 hours of incubation; for Ymin (5 hr): BCL6 degradation normalized with DMSO control; for DC50: four-parameter logistic model, read-out: EC50 (5 hr)
How it was run: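 Degradation measured by luminescence from the Nano-Glo HiBiT lytic reagent (15 min, room temperature), normalized to DMSO controls and fitted to a four-parameter curve.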

Compound | Ymin (5 hr) | DC50 [nM]
CNC(=O)COc1cc2cc(Nc3nc(N4CCC(CN5CC6CC(C5)N6c5cccc6c(C7CCC(=O)NC7=O)nn(C)c56)CC4)ncc3Cl)cnc2n(C(C)C)c1=O (stereo not shown) [Compound 187, 2-[[6-[[5-chloro-2-[4-[[6-[3-(2,6-dioxo-3-piperidyl)-1-methyl-indazol-7-yl]-3,6-diazabicyclo[3.1.1]heptan-3-yl]methyl]-1-piperidyl]pyrimidin-4-yl]amino]-1-isopropyl-2-oxo-1,8-naphthyridin-3-yl]oxy]-N-methyl-acetamide] | +++ (30% ≤ Ymin < 50%) | 10 to 100
CNC(=O)COc1cc2cc(Nc3nc(N4CCC5(CC4)CN(CC4CCN(c6cccc7c(C8CCC(=O)NC8=O)nn(C)c67)CC4)C5)ncc3Cl)cnc2n(C)c1=O (stereo not shown) [Compound 120, 2-((6-((5-chloro-2-(2-((1-(3-(2,6-dioxopiperidin-3-yl)-1-methyl-1H-indazol-7-yl)piperidin-4-yl)methyl)-2,7-diazaspiro[3.5]nonan-7-yl)pyrimidin-4-yl)amino)-1-methyl-2-oxo-1,2-dihydro-1,8-naphthyridin-3-yl)oxy)-N-methylacetamide] | ++++ (Ymin < 30%) | < 10
CNC(=O)COc1cc2cc(Nc3nc(N4CCC(F)(CN5CCN(c6cccc7c(C8CCC(=O)NC8=O)nn(C)c67)C[C@@H]5C)CC4)ncc3Cl)cnc2n(C(C)C)c1=O (stereo partly drawn) [Compound 189a, 2-[[6-[[5-chloro-2-[4-[[(2S)-4-[3-(2,6-dioxo-3-piperidyl)-1-methyl-indazol-7-yl]-2-methyl-piperazin-1-yl]methyl]-4-fluoro-1-piperidyl]pyrimidin-4-yl]amino]-1-isopropyl-2-oxo-1,8-naphthyridin-3-yl]oxy]-N-methyl-acetamide] | ++++ (Ymin < 30%) | 10 to 100
CNC(=O)COc1cc2cc(Nc3nc(N4CCC([C@@](C)(O)C5CCN(c6cccc7c(C8CCC(=O)NC8=O)nn(C)c67)CC5)CC4)ncc3Cl)cnc2n(C(C)C)c1=O (single isomer, unassigned) [Compound 194a] | ++++ (Ymin < 30%) | 10 to 100
CNC(=O)COc1cc2cc(Nc3nc(N4CCN(CC5CCN(c6cccc7c(C8CCC(=O)NC8=O)nn(C)c67)CC5)C[C@@H]4C)ncc3Cl)cnc2n(C(C)C)c1=O (stereo partly drawn) [Compound 168a, 2-[[6-[[5-chloro-2-[(2S)-4-[[1-[3-(2,6-dioxo-3-piperidyl)-1-methyl-indazol-7-yl]-4-piperidyl]methyl]-2-methyl-piperazin-1-yl]pyrimidin-4-yl]amino]-1-isopropyl-2-oxo-1,8-naphthyridin-3-yl]oxy]-N-methyl-acetamide] | +++ (30% ≤ Ymin < 50%) | 10 to 100
CNC(=O)COc1cc2cc(Nc3nc(N4CC5(CCC(Nc6c(F)ccc7c(C8CCC(=O)NC8=O)nn(C)c67)CC5)C4)ncc3Cl)cnc2n(C(C)C)c1=O (stereo not shown) [Compound 222, 2-[[6-[[5-chloro-2-[7-[[3-(2,6-dioxo-3-piperidyl)-6-fluoro-1-methyl-indazol-7-yl]amino]-2-azaspiro[3.5]nonan-2-yl]pyrimidin-4-yl]amino]-1-isopropyl-2-oxo-1,8-naphthyridin-3-yl]oxy]-N-methyl-acetamide] | ++ (50% ≤ Ymin < 70%) | 10 to 100
CNC(=O)COc1cc2cc(Nc3nc(N4C[C@@H]5C[C@H]4CN5CC4CCN(c5cccc6c(C7CCC(=O)NC7=O)nn(C)c56)CC4)ncc3Cl)cnc2n(C(C)C)c1=O (stereo partly drawn) [Compound 174b, 2-[[6-[[5-chloro-2-[(1S,4S)-5-[[1-[3-(2,6-dioxo-3-piperidyl)-1-methyl-indazol-7-yl]-4-piperidyl]methyl]-2,5-diazabicyclo[2.2.1]heptan-2-yl]pyrimidin-4-yl]amino]-1-isopropyl-2-oxo-1,8-naphthyridin-3-yl]oxy]-N-methyl-acetamide] | +++ (30% ≤ Ymin < 50%) | 10 to 100
CNC(=O)COc1cc2cc(Nc3nc(N4CCC(CC5CCN(c6cccc7c(C8CCC(=O)NC8=O)nn(C)c67)CC5)CC4)ncc3Cl)cnc2n(C)c1=O (stereo not shown) [Compound 139, 2-((6-((5-chloro-2-(4-((1-(3-(2,6-dioxopiperidin-3-yl)-1-methyl-1H-indazol-7-yl)piperidin-4-yl)methyl)piperidin-1-yl)pyrimidin-4-yl)amino)-1-methyl-2-oxo-1,2-dihydro-1,8-naphthyridin-3-yl)oxy)-N-methylacetamide] | +++ (30% ≤ Ymin < 50%) | 100 to 1000
CNC(=O)COc1cc2cc(Nc3nc(N4CCN([C@H]5C[C@H](OC6CCN(c7ccc8c(C9CCC(=O)NC9=O)nn(C)c8c7)CC6)C5)CC4)ncc3Cl)cnc2n(C(C)C)c1=O (stereo partly shown) [Compound 227a, 2-((6-((5-chloro-2-(4-((1r,3r)-3-((1-(3-(2,6-dioxopiperidin-3-yl)-1-methyl-1H-indazol-6-yl)piperidin-4-yl)oxy)cyclobutyl)piperazin-1-yl)pyrimidin-4-yl)amino)-1-isopropyl-2-oxo-1,2-dihydro-1,8-naphthyridin-3-yl)oxy)-N-methylacetamide] | ++ (50% ≤ Ymin < 70%) | < 10
CNC(=O)COc1cc2cc(Nc3nc(N4CCN(CC5CCN(c6ccc7c(C8CCC(=O)NC8=O)nn(C)c7c6)CC5)C[C@H]4CO)ncc3Cl)cnc2n(C(C)C)c1=O (stereo partly drawn) [Compound 151b, 2-((6-((5-chloro-2-((2S)-4-((1-(3-(2,6-dioxopiperidin-3-yl)-1-methyl-1H-indazol-6-yl)piperidin-4-yl)methyl)-2-(hydroxymethyl)piperazin-1-yl)pyrimidin-4-yl)amino)-1-isopropyl-2-oxo-1,2-dihydro-1,8-naphthyridin-3-yl)oxy)-N-methylacetamide] | ++ (50% ≤ Ymin < 70%) | < 10
CNC(=O)COc1cc2cc(Nc3nc(N4CCN(C(=O)N5CCN(c6ccc7c(C8CCC(=O)NC8=O)nn(C)c7c6)CC5)CC4)ncc3Cl)cnc2n(C(C)C)c1=O (stereo not shown) [Compound 219, 2-[[6-[[5-chloro-2-[4-[4-[3-(2,6-dioxo-3-piperidyl)-1-methyl-indazol-6-yl]piperazine-1-carbonyl]piperazin-1-yl]pyrimidin-4-yl]amino]-1-isopropyl-2-oxo-1,8-naphthyridin-3-yl]oxy]-N-methyl-acetamide] | +++ (30% ≤ Ymin < 50%) | < 10
CNC(=O)COc1cc2cc(Nc3nc(N4CCC(CN5CCN(c6cccc7c(C8CCC(=O)NC8=O)nn(C)c67)C[C@@H]5CO)CC4)ncc3Cl)cnc2n(C(C)C)c1=O (stereo partly drawn) [Compound 231b, 2-[[6-[[5-chloro-2-[4-[[(2R)-4-[3-(2,6-dioxo-3-piperidyl)-1-methyl-indazol-7-yl]-2-(hydroxymethyl)piperazin-1-yl]methyl]-1-piperidyl]pyrimidin-4-yl]amino]-1-isopropyl-2-oxo-1,8-naphthyridin-3-yl]oxy]-N-methyl-acetamide] | ++++ (Ymin < 30%) | < 10
CNC(=O)COc1cc2cc(Nc3nc(N4CCC(CN5CCN(c6cccc7c(C8CCC(=O)NC8=O)nn(C)c67)C[C@H]5CO)CC4)ncc3Cl)cnc2n(C(C)C)c1=O (stereo partly drawn) [Compound 231a, 2-[[6-[[5-chloro-2-[4-[[(2S)-4-[3-(2,6-dioxo-3-piperidyl)-1-methyl-indazol-7-yl]-2-(hydroxymethyl)piperazin-1-yl]methyl]-1-piperidyl]pyrimidin-4-yl]amino]-1-isopropyl-2-oxo-1,8-naphthyridin-3-yl]oxy]-N-methyl-acetamide] | ++++ (Ymin < 30%) | 10 to 100
CNC(=O)COc1cc2cc(Nc3nc(N4CCC(Oc5ccc6c(C7CCC(=O)NC7=O)nn(C)c6c5)CC4)ncc3Cl)cnc2n(C(C)C)c1=O (stereo not shown) [Compound 164, 2-[[6-[[5-chloro-2-[4-[3-(2,6-dioxo-3-piperidyl)-1-methyl-indazol-6-yl]oxy-1-piperidyl]pyrimidin-4-yl]amino]-1-isopropyl-2-oxo-1,8-naphthyridin-3-yl]oxy]-N-methyl-acetamide] | +++ (30% ≤ Ymin < 50%) | < 10
CNC(=O)COc1cc2cc(Nc3nc(N4CCN(CC5CCN(c6cccc7c(C8CCC(=O)NC8=O)nn(C)c67)CC5)C[C@H]4C)ncc3Cl)cnc2n(C(C)C)c1=O (stereo partly drawn) [Compound 168b, 2-[[6-[[5-chloro-2-[(2R)-4-[[1-[3-(2,6-dioxo-3-piperidyl)-1-methyl-indazol-7-yl]-4-piperidyl]methyl]-2-methyl-piperazin-1-yl]pyrimidin-4-yl]amino]-1-isopropyl-2-oxo-1,8-naphthyridin-3-yl]oxy]-N-methyl-acetamide] | +++ (30% ≤ Ymin < 50%) | 10 to 100
CNC(=O)COc1cc2cc(Nc3nc(N4C[C@@H]5[C@@H](CN6CCN(c7cccc8c(C9CCC(=O)NC9=O)nn(C)c78)CC6)[C@@H]5C4)ncc3Cl)cnc2n(C)c1=O (stereo partly drawn) [Compound 136a, 2-((6-((5-chloro-2-((1R,5S,6s)-6-((4-(3-(2,6-dioxopiperidin-3-yl)-1-methyl-1H-indazol-7-yl)piperazin-1-yl)methyl)-3-azabicyclo[3.1.0]hexan-3-yl)pyrimidin-4-yl)amino)-1-methyl-2-oxo-1,2-dihydro-1,8-naphthyridin-3-yl)oxy)-N-methylacetamide] | ++++ (Ymin < 30%) | < 10
CNC(=O)COc1cc2cc(Nc3nc(N4CCC(CC5CCN(c6ccc7c(C8CCC(=O)NC8=O)nn(C)c7c6)CC5)CC4)ncc3Cl)cnc2n(C)c1=O (stereo not shown) [Compound 140, 2-((6-((5-chloro-2-(4-((1-(3-(2,6-dioxopiperidin-3-yl)-1-methyl-1H-indazol-6-yl)piperidin-4-yl)methyl)piperidin-1-yl)pyrimidin-4-yl)amino)-1-methyl-2-oxo-1,2-dihydro-1,8-naphthyridin-3-yl)oxy)-N-methylacetamide] | +++ (30% ≤ Ymin < 50%) | < 10

— patent publication US20260241012A1, “1,8-NAPHTHYRIDIN-2-ONE HETEROBIFUNCTIONAL BCL6 DEGRADERS” (Treeline Biosciences, Inc., priority 2022, published 2026)
